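Five compound concentrations were applied to cells in 96-well plates for 48 hours; endpoints were derived by simple linear interpolation of the resulting dose-response curve. The concentration for 50% growth inhibition is given as GI50.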 Active and inactive are the calls of the source. Cut-off read from the data, not from the text of the source: active = GI50 up to about 1.1 µM and inactive = higher.
Key:
Test in all cases: NCI anticancer screen, dose series, 48 h
[1] = tested on: BT-549
[2] = tested on: CCRF-CEM
[3] = tested on: OVCAR-3
[4] = tested on: SK-OV-3
[5] = tested on: HCC 2998
[6] = tested on: U-251
[7] = tested on: ACHN
[8] = tested on: MDA-MB-435
[9] = tested on: UACC-62
[10] = tested on: HOP-62
[11] = tested on: UO-31
[12] = tested on: SNB-75
[13] = tested on: HCT-15
[14] = tested on: OVCAR-5
[15] = tested on: SK-MEL-2
[16] = tested on: SF-539
[17] = tested on: NCI-H460
[18] = tested on: SK-MEL-5
[19] = tested on: NCI-H226

SMILES	GI50 [1]	GI50 [2]	GI50 [3]	GI50 [4]	GI50 [5]	GI50 [6]	GI50 [7]	GI50 [8]	GI50 [9]	GI50 [10]	GI50 [11]	GI50 [12]	GI50 [13]	GI50 [14]	GI50 [15]	GI50 [16]	GI50 [17]	GI50 [18]	GI50 [19]
COc1ccc(C(=O)c2ccc(-n3c4ccccc4c4ccc5c(c43)C(=O)C=CC5=O)cc2)cc1	3.21 µM (inactive)	0.367 µM (active)	1.14 µM (inactive)	13.7 µM (inactive)	5.61 µM (inactive)	1.69 µM (inactive)	0.8 µM (active)	1.39 µM (inactive)	3.03 µM (inactive)	12.5 µM (inactive)	0.52 µM (active)	3.66 µM (inactive)	1.9 µM	19.5 µM (inactive)	3.88 µM (inactive)	2.61 µM (inactive)	4.61 µM (inactive)	4.27 µM (inactive)	17.3 µM (inactive)
NC(=O)NC(=O)CCC(NS(=O)(=O)c1ccccc1)C(=O)NC(N)=O (centres undefined)	> 100 µM (inactive)	> 100 µM (inactive)	> 100 µM (inactive)	> 100 µM (inactive)	> 100 µM (inactive)	> 100 µM (inactive)	> 100 µM (inactive)	> 100 µM (inactive)	> 100 µM (inactive)	> 100 µM (inactive)	> 100 µM (inactive)	> 100 µM (inactive)	> 100 µM	> 100 µM (inactive)	> 100 µM (inactive)	> 100 µM (inactive)	> 100 µM (inactive)	> 100 µM (inactive)	> 100 µM (inactive)
NC1=C(Cl)C(=O)c2c(O)ccc(O)c2C1=O	1.93 µM (inactive)	4.09 µM (inactive)	2.22 µM (inactive)	20.9 µM (inactive)	2.84 µM (inactive)	4.12 µM (inactive)	4.88 µM (inactive)	2.01 µM (inactive)	1.59 µM (inactive)	5.36 µM (inactive)	9.06 µM (inactive)	5.41 µM (inactive)	3.37 µM	5.85 µM (inactive)	4.72 µM (inactive)	2.84 µM (inactive)	1.91 µM (inactive)	0.735 µM (active)	11.6 µM (inactive)
COc1ccc(C(SC2C(O)C(CO)OC2n2ccc(=O)[nH]c2=O)(c2ccccc2)c2ccc(OC)cc2)cc1 (centres undefined)	16.6 µM (inactive)	23.8 µM (inactive)	17.6 µM (inactive)	13.7 µM (inactive)	14.8 µM (inactive)	13.9 µM (inactive)	29 µM (inactive)	9.1 µM (inactive)	15.9 µM (inactive)	17.9 µM (inactive)	16.6 µM (inactive)	18.5 µM (inactive)	15.5 µM	18.4 µM (inactive)	15.1 µM (inactive)	22 µM (inactive)	10.9 µM (inactive)	14.7 µM (inactive)	16.6 µM (inactive)
C/C=C/[C@@H]1O[C@H](CC#C[Si](C)(C)C)[C@@]2(C=O)C(C)=CC[C@H](C(C)C)[C@@H]12	22.4 µM (inactive)	2.41 µM (inactive)	18.6 µM (inactive)	80.4 µM (inactive)	18.2 µM (inactive)	17.3 µM (inactive)	19.2 µM (inactive)	20 µM (inactive)	15.8 µM (inactive)	25.4 µM (inactive)	1.61 µM (inactive)	21.6 µM (inactive)	21.1 µM	21 µM (inactive)	16.5 µM (inactive)	21.6 µM (inactive)	17.1 µM (inactive)	17.6 µM (inactive)	20.3 µM (inactive)
CN1CCN(/C(N)=C(\C#N)C(=O)Nc2ccc(Cl)cc2)CC1	> 100 µM (inactive)	30.1 µM (inactive)	41.7 µM (inactive)	> 100 µM (inactive)	59.6 µM (inactive)	96.8 µM (inactive)	> 100 µM (inactive)	37.5 µM (inactive)	23 µM (inactive)	> 100 µM (inactive)	55.1 µM (inactive)	> 100 µM (inactive)	57.9 µM	> 100 µM (inactive)	32.7 µM (inactive)	> 100 µM (inactive)	74.6 µM (inactive)	27.5 µM (inactive)	> 100 µM (inactive)
COc1cc(C2S/C(=C/c3ccccc3)C(=O)N2c2cc(Cl)c(Cl)cc2Cl)cc(OC)c1OC (centres undefined)	23.7 µM (inactive)	21.5 µM (inactive)	24.2 µM (inactive)	> 70.5 µM (inactive)	39.1 µM (inactive)	44.4 µM (inactive)	35.6 µM (inactive)	34 µM (inactive)	27.5 µM (inactive)	28.4 µM (inactive)	26.7 µM (inactive)	2.56 µM (inactive)	28.7 µM	41.4 µM (inactive)	41.3 µM (inactive)	25.6 µM (inactive)	31.5 µM (inactive)	22.5 µM (inactive)	20.6 µM (inactive)
C=C1C(=O)O[C@@H]2C(=O)[C@@H](C)[C@@H]3C=CC(=O)[C@@]3(C)[C@@H](OC(=O)/C(C)=C\C)[C@H]12 [MULTISTATIN]	0.689 µM (active)	0.168 µM (active)	0.653 µM (active)	13.1 µM (inactive)	1.71 µM (inactive)	2.43 µM (inactive)	0.212 µM (active)	1.29 µM (inactive)	1.25 µM (inactive)	11.9 µM (inactive)	1.21 µM (inactive)	5.53 µM (inactive)	0.284 µM	2.22 µM (inactive)	2.86 µM (inactive)	1.84 µM (inactive)	2.21 µM (inactive)	1.68 µM (inactive)	2.38 µM (inactive)
O=C1CSC(c2ccccc2O)N1c1ccc(-n2c(-c3ccccc3)nc3ccccc3c2=O)cc1 (centres undefined)	21.6 µM (inactive)	14.7 µM (inactive)	14.6 µM (inactive)	23.7 µM (inactive)	28.5 µM (inactive)	5.7 µM (inactive)	19.7 µM (inactive)	24.4 µM (inactive)	21.5 µM (inactive)	20.6 µM (inactive)	18.9 µM (inactive)	54.1 µM (inactive)	6.84 µM	30.8 µM (inactive)	24.3 µM (inactive)	16.6 µM (inactive)	14.8 µM (inactive)	16.1 µM (inactive)	25 µM (inactive)
CCN(CC)Cc1cc(/N=N\c2c(O)ccc3c(/N=N\c4ccc(O)c(CN(CC)CC)c4)c(O)ccc23)ccc1O	4.92 µM (inactive)	2.44 µM (inactive)	3.73 µM (inactive)	2.77 µM (inactive)	1.71 µM (inactive)	3.48 µM (inactive)	2.49 µM (inactive)	3.65 µM (inactive)	4.41 µM (inactive)	2.79 µM (inactive)	2 µM (inactive)	6.28 µM (inactive)	1.68 µM	6.49 µM (inactive)	12.6 µM (inactive)	2.73 µM (inactive)	1.91 µM (inactive)	2.47 µM (inactive)	4.54 µM (inactive)
Cc1ccc(NC(=O)c2cccc(OP(=O)(O)Nc3ccc(C)cc3)c2)cc1	> 100 µM (inactive)	> 100 µM (inactive)	> 100 µM (inactive)	> 100 µM (inactive)	> 100 µM (inactive)	> 100 µM (inactive)	57.4 µM (inactive)	> 100 µM (inactive)	> 100 µM (inactive)	> 100 µM (inactive)	88.1 µM (inactive)	20.2 µM (inactive)	> 100 µM	> 100 µM (inactive)	> 100 µM (inactive)	> 100 µM (inactive)	> 100 µM (inactive)	> 100 µM (inactive)	> 100 µM (inactive)
O=C(O)CN(CC(=O)O)Cc1cc2c(cc1O)Oc1cc(O)c(CN(CC(=O)O)CC(=O)O)cc1C21OC(=O)c2ccccc21 [OFTASCEINE]	> 100 µM (inactive)	> 100 µM (inactive)	> 100 µM (inactive)	> 100 µM (inactive)	> 100 µM (inactive)	> 100 µM (inactive)	> 100 µM (inactive)	> 100 µM (inactive)	> 100 µM (inactive)	> 100 µM (inactive)	> 100 µM (inactive)	> 100 µM (inactive)	> 100 µM	> 100 µM (inactive)	> 100 µM (inactive)	> 100 µM (inactive)	> 10 µM (inactive)	> 100 µM (inactive)	> 100 µM (inactive)
NC(=O)c1cc2ccccc2o/c1=N/c1ccccc1	> 100 µM (inactive)	> 100 µM (inactive)	> 100 µM (inactive)	> 100 µM (inactive)	> 100 µM (inactive)	> 100 µM (inactive)	> 100 µM (inactive)	> 100 µM (inactive)	> 100 µM (inactive)	> 100 µM (inactive)	–	> 100 µM (inactive)	> 100 µM	> 100 µM (inactive)	> 100 µM (inactive)	> 100 µM (inactive)	> 100 µM (inactive)	> 100 µM (inactive)	> 100 µM (inactive)
C[N+](C)(C)CC1CCCc2ccccc2C1=O (centres undefined)	19.1 µM (inactive)	2.32 µM (inactive)	7.26 µM (inactive)	20.3 µM (inactive)	20.6 µM (inactive)	6.71 µM (inactive)	5.02 µM (inactive)	5.89 µM (inactive)	12.2 µM (inactive)	18.8 µM (inactive)	16.9 µM (inactive)	19.7 µM (inactive)	5.98 µM	13.3 µM (inactive)	10.5 µM (inactive)	17.4 µM (inactive)	22.1 µM (inactive)	6.59 µM (inactive)	21.9 µM (inactive)
COc1cccc2c(=O)c3c(O)c4cc(N(C)C)ccc4c(OC(C)=O)c3oc12	10.2 µM (inactive)	5.33 µM (inactive)	4 µM (inactive)	32.4 µM (inactive)	15 µM (inactive)	14 µM (inactive)	15.2 µM (inactive)	12.6 µM (inactive)	12.9 µM (inactive)	15 µM (inactive)	17.7 µM (inactive)	15.5 µM (inactive)	12.7 µM	38.9 µM (inactive)	16.3 µM (inactive)	17.2 µM (inactive)	18.2 µM (inactive)	12.6 µM (inactive)	23.2 µM (inactive)

Reference: ChEMBL document CHEMBL1201862, “PubChem BioAssay data set” (2004)
